# Reference: PubChem BioAssay AID330 (DTP/NCI, 2004)
# “And” between values parts separate entries of the source, which are not always exact repeats. Identical values can stand only once. Inconclusive results and toxic doses are left out.
# Tested on: P388 leukemia ip, CD2F1 mice, survival T/C
# Assay: NCI In Vivo Anticancer Drug Screen. Data for tumor model P388 Leukemia (intraperitoneal) in CD2F1 (CDF1) mice
# Conditions: endpoint: median survival time, higher = longer survival
# How it was run: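 Mice carrying the transplanted tumor received test compound or vehicle. Survival was recorded in each group, and the value is the treated-group measurement divided by that of the vehicle-treated control group.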
smiles,measurement,setting,value
COc1cccc2c1C(=O)c1c(O)c3c(c(O)c1C2=O)C[C@@](O)(C(C)=O)C[C@@H]3OC1CC(N)C(O)C(C)O1 (stereo partly drawn),T/C,"dose: 0.06 mg/kg/injection, schedule: Q01DX009 (ip), vehicle: water",104 % of control and 118 % of control
same,T/C,"dose: 0.06 mg/kg/injection, schedule: Q03HX008 (ip), vehicle: saline",118 % of control
same,T/C,"dose: 0.08 mg/kg/injection, schedule: Q01DX005 (ip), vehicle: saline",118 % of control
same,T/C,"dose: 0.12 mg/kg/injection, schedule: Q01DX005 (ip), vehicle: water",114 % of control
same,T/C,"dose: 0.13 mg/kg/injection, schedule: Q03HX008 (ip), vehicle: saline",120 % of control
same,T/C,"dose: 0.16 mg/kg/injection, schedule: Q01DX005 (ip), vehicle: saline",150 % of control and 167 % of control
same,T/C,"dose: 0.16 mg/kg/injection, schedule: Q01DX009 (ip), vehicle: saline",168 % of control
same,T/C,"dose: 0.21 mg/kg/injection, schedule: Q01DX009 (ip), vehicle: water",150 % of control
same,T/C,"dose: 0.25 mg/kg/injection, schedule: Q01DX005 (ip), vehicle: water",112 % of control
same,T/C,"dose: 0.25 mg/kg/injection, schedule: Q04DX003 (ip), vehicle: saline",100 % of control
same,T/C,"dose: 0.32 mg/kg/injection, schedule: Q01DX001 (ip), vehicle: saline",150 % of control
same,T/C,"dose: 0.32 mg/kg/injection, schedule: Q01DX005 (ip), vehicle: saline",175 % of control
same,T/C,"dose: 0.32 mg/kg/injection, schedule: Q01DX009 (ip), vehicle: saline",166 % of control
same,T/C,"dose: 0.32 mg/kg/injection, schedule: Q03HX040 (ip), vehicle: saline",116 % of control
same,T/C,"dose: 0.39 mg/kg/injection, schedule: Q01DX009 (ip), vehicle: saline",172 % of control
same,T/C,"dose: 0.42 mg/kg/injection, schedule: Q01DX009 (ip), vehicle: water",150 % of control and 155 % of control
same,T/C,"dose: 0.5 mg/kg/injection, schedule: Q01DX001 (ip), vehicle: saline",108 % of control
same,T/C,"dose: 0.5 mg/kg/injection, schedule: Q01DX005 (ip), vehicle: water",107 % of control
same,T/C,"dose: 0.5 mg/kg/injection, schedule: Q01DX005 (oral), vehicle: water",105 % of control
same,T/C,"dose: 0.5 mg/kg/injection, schedule: Q01DX010 (ip), vehicle: saline",163 % of control
same,T/C,"dose: 0.5 mg/kg/injection, schedule: Q04DX003 (ip), vehicle: saline",109 % of control
same,T/C,"dose: 0.63 mg/kg/injection, schedule: Q01DX001 (ip), vehicle: saline",166 % of control
same,T/C,"dose: 0.63 mg/kg/injection, schedule: Q01DX009 (ip), vehicle: saline",171 % of control
same,T/C,"dose: 0.63 mg/kg/injection, schedule: Q03HX040 (ip), vehicle: saline",112 % of control
same,T/C,"dose: 0.64 mg/kg/injection, schedule: Q01DX001 (ip), vehicle: saline",160 % of control
same,T/C,"dose: 0.75 mg/kg/injection, schedule: Q04DX003 (ip), vehicle: saline",110 % of control and 119 % of control
same,T/C,"dose: 0.83 mg/kg/injection, schedule: Q01DX009 (ip), vehicle: water",164 % of control and 169 % of control
same,T/C,"dose: 1.0 mg/kg/injection, schedule: Q01DX001 (ip), vehicle: saline",115 % of control
same,T/C,"dose: 1.0 mg/kg/injection, schedule: Q01DX005 (oral), vehicle: water",102 % of control
same,T/C,"dose: 1.0 mg/kg/injection, schedule: Q01DX010 (ip), vehicle: saline",172 % of control
same,T/C,"dose: 1.0 mg/kg/injection, schedule: Q04DX002 (ip), vehicle: water",158 % of control
same,T/C,"dose: 1.0 mg/kg/injection, schedule: Q04DX003 (iv), vehicle: saline",98 % of control
same,T/C,"dose: 1.08 mg/kg/injection, schedule: Q01DX009 (ip), vehicle: saline",172 % of control
same,T/C,"dose: 1.08 mg/kg/injection, schedule: Q04DX003 (ip), vehicle: saline",150 % of control and 152 % of control
same,T/C,"dose: 1.08 mg/kg/injection, schedule: Q04DX003 (ip), vehicle: water",157 % of control
same,T/C,"dose: 1.25 mg/kg/injection, schedule: Q01DX001 (ip), vehicle: saline",154 % of control
same,T/C,"dose: 1.25 mg/kg/injection, schedule: Q01DX005 (ip), vehicle: saline",162 % of control
same,T/C,"dose: 1.25 mg/kg/injection, schedule: Q03HX008 (ip), vehicle: saline",167 % of control
same,T/C,"dose: 1.3 mg/kg/injection, schedule: Q01DX001 (ip), vehicle: water",154 % of control
same,T/C,"dose: 1.5 mg/kg/injection, schedule: Q04DX003 (ip), vehicle: saline",116 % of control and 117 % of control
same,T/C,"dose: 1.67 mg/kg/injection, schedule: Q01DX009 (ip), vehicle: water",123 % of control
same,T/C,"dose: 1.8 mg/kg/injection, schedule: Q01DX001 (ip), vehicle: water",162 % of control
same,T/C,"dose: 1.8 mg/kg/injection, schedule: Q01DX009 (ip), vehicle: saline",163 % of control
same,T/C,"dose: 1.8 mg/kg/injection, schedule: Q04DX003 (ip), vehicle: saline",154 % of control
same,T/C,"dose: 1.8 mg/kg/injection, schedule: Q04DX003 (ip), vehicle: water",160 % of control
same,T/C,"dose: 2.0 mg/kg/injection, schedule: Q01DX001 (ip), vehicle: saline",114 % of control
same,T/C,"dose: 2.0 mg/kg/injection, schedule: Q01DX005 (ip), vehicle: water",153 % of control
same,T/C,"dose: 2.0 mg/kg/injection, schedule: Q01DX005 (oral), vehicle: water",114 % of control
same,T/C,"dose: 2.0 mg/kg/injection, schedule: Q03HX024 (ip), vehicle: saline",156 % of control
same,T/C,"dose: 2.0 mg/kg/injection, schedule: Q04DX003 (iv), vehicle: saline",102 % of control
same,T/C,"dose: 2.4 mg/kg/injection, schedule: Q01DX001 (ip), vehicle: water",163 % of control
same,T/C,"dose: 2.5 mg/kg/injection, schedule: Q03HX008 (ip), vehicle: saline",170 % of control
same,T/C,"dose: 3.0 mg/kg/injection, schedule: Q01DX001 (ip), vehicle: saline",150 % of control and 153 % of control
same,T/C,"dose: 3.0 mg/kg/injection, schedule: Q01DX009 (ip), vehicle: saline",104 % of control
same,T/C,"dose: 3.2 mg/kg/injection, schedule: Q01DX001 (ip), vehicle: water",171 % of control
same,T/C,"dose: 4.0 mg/kg/injection, schedule: Q01DX001 (ip), vehicle: saline",160 % of control
same,T/C,"dose: 4.0 mg/kg/injection, schedule: Q01DX004 (ip), vehicle: saline",99 % of control
same,T/C,"dose: 4.0 mg/kg/injection, schedule: Q01DX005 (ip), vehicle: water",164 % of control
same,T/C,"dose: 4.0 mg/kg/injection, schedule: Q01DX005 (oral), vehicle: water",104 % of control
same,T/C,"dose: 4.0 mg/kg/injection, schedule: Q04DX003 (iv), vehicle: saline",104 % of control and 113 % of control and 121 % of control
same,T/C,"dose: 4.2 mg/kg/injection, schedule: Q01DX001 (ip), vehicle: water",174 % of control
same,T/C,"dose: 4.5 mg/kg/injection, schedule: Q01DX001 (ip), vehicle: saline",166 % of control
same,T/C,"dose: 4.5 mg/kg/injection, schedule: Q04DX003 (ip), vehicle: saline",159 % of control
same,T/C,"dose: 5.0 mg/kg/injection, schedule: Q01DX001 (ip), vehicle: saline",159 % of control and 174 % of control
same,T/C,"dose: 5.0 mg/kg/injection, schedule: Q01DX009 (ip), vehicle: water",100 % of control
same,T/C,"dose: 5.0 mg/kg/injection, schedule: Q04DX003 (ip), vehicle: saline",118 % of control
same,T/C,"dose: 5.0 mg/kg/injection, schedule: Q04DX003 (ip), vehicle: water",118 % of control
same,T/C,"dose: 5.6 mg/kg/injection, schedule: Q01DX001 (ip), vehicle: water",106 % of control
same,T/C,"dose: 6.0 mg/kg/injection, schedule: Q04DX003 (ip), vehicle: saline",122 % of control
same,T/C,"dose: 7.5 mg/kg/injection, schedule: Q01DX001 (ip), vehicle: water",116 % of control
same,T/C,"dose: 8.0 mg/kg/injection, schedule: Q01DX001 (ip), vehicle: saline",124 % of control
same,T/C,"dose: 8.0 mg/kg/injection, schedule: Q01DX005 (oral), vehicle: water",102 % of control
same,T/C,"dose: 8.0 mg/kg/injection, schedule: Q04DX003 (iv), vehicle: saline",150 % of control
same,T/C,"dose: 10.0 mg/kg/injection, schedule: Q01DX009 (ip), vehicle: water",100 % of control
same,T/C,"dose: 12.0 mg/kg/injection, schedule: Q04DX003 (ip), vehicle: saline",150 % of control
same,T/C,"dose: 12.5 mg/kg/injection, schedule: Q04DX003 (ip), vehicle: saline",115 % of control
same,T/C,"dose: 16.0 mg/kg/injection, schedule: Q01DX005 (oral), vehicle: water",103 % of control
same,T/C,"dose: 16.0 mg/kg/injection, schedule: Q04DX003 (iv), vehicle: saline",104 % of control
same,T/C,"dose: 20.0 mg/kg/injection, schedule: Q01DX009 (ip), vehicle: water",110 % of control
same,T/C,"dose: 0.3 micrograms/kg/injection, schedule: Q03HX008 (ip), vehicle: saline",123 % of control
same,T/C,"dose: 0.6 micrograms/kg/injection, schedule: Q03HX040 (ip), vehicle: saline",109 % of control
same,T/C,"dose: 7.5 micrograms/kg/injection, schedule: Q03HX024 (ip), vehicle: saline",155 % of control
same,T/C,"dose: 16.3 micrograms/kg/injection, schedule: Q03HX024 (ip), vehicle: saline",165 % of control
